In US20120094998A1, “Oligomer-Protein Tyrosine Kinase Inhibitor Conjugates” (Nektar Therapeutics, priority 2009, published 2012) one finds inhibition data, which are given here for three compounds.

The inhibition is the drop in the measured response relative to a control, in per cent.

Common to all, as to type: biochemical
What all share (conditions): for inhibition at 0.01 µM: 10 nM

Assay [1] addresses T1, IKK-beta (Homo sapiens, UniProt O14920).
T1 sequence (O14920 1-756): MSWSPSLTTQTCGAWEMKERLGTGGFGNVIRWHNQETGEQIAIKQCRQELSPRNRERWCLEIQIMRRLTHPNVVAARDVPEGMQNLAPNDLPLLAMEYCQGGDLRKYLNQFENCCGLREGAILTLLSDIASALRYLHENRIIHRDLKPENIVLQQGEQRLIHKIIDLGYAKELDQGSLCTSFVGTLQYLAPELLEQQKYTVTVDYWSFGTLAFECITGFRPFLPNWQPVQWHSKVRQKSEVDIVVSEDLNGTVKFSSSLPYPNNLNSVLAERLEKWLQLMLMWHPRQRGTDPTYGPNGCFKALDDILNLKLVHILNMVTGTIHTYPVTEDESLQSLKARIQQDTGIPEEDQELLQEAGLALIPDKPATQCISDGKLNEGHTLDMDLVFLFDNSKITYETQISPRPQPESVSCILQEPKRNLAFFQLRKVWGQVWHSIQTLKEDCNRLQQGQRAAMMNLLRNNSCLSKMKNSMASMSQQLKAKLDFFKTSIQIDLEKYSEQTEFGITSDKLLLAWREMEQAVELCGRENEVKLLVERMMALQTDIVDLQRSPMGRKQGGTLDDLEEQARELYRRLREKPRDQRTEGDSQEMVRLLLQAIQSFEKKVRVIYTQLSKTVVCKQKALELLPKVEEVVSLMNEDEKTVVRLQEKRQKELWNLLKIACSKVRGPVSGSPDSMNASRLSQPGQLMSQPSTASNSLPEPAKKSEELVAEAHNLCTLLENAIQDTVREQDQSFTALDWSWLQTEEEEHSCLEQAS
Nature of the assay: Activity against various protein tyrosine kinases: IKK-beta. How it is done:
(§1) Using techniques know those of ordinary skill in the art, compounds were tested for activity against various protein tyrosine kinases.

The target in assay [2] is GSK3b (Homo sapiens, UniProt P49841). Nature of the assay: Activity against various protein tyrosine kinases: GSK3b. The procedure: as §1
Assay [3] deals with T2, PKCz (Homo sapiens, UniProt Q05513).
T2 sequence (Q05513 1-592): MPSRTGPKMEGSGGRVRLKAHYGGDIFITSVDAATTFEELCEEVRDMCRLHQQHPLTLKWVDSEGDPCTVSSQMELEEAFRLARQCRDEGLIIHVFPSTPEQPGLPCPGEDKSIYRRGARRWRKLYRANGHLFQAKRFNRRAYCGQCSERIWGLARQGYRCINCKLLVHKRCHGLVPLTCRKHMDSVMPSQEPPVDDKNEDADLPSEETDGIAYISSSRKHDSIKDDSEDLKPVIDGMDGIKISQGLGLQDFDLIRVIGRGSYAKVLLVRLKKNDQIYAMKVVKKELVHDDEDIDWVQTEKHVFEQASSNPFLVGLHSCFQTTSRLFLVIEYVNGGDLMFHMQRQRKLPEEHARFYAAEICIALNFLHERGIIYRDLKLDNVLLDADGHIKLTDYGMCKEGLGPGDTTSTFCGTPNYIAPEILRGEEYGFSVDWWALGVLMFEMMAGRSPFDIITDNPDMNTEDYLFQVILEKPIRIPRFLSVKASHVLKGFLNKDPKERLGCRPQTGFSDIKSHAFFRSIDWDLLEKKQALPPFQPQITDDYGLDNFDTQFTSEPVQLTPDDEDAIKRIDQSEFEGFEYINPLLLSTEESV
Nature of the assay: Activity against various protein tyrosine kinases: PKCz. The procedure:
as §1

Assay [4] has as its target MSK1 (Homo sapiens, UniProt O75582). Nature of the assay: Activity against various protein tyrosine kinases: MSK1. How it is done:
as §1

Assay [5] has as its target AKT1 (Homo sapiens, UniProt P31749). Nature of the assay: Activity against various protein tyrosine kinases: AKT1. The procedure:
as §1

Assay [6] addresses T3, AurA (Homo sapiens, UniProt O14965).
T3 sequence (O14965 1-403): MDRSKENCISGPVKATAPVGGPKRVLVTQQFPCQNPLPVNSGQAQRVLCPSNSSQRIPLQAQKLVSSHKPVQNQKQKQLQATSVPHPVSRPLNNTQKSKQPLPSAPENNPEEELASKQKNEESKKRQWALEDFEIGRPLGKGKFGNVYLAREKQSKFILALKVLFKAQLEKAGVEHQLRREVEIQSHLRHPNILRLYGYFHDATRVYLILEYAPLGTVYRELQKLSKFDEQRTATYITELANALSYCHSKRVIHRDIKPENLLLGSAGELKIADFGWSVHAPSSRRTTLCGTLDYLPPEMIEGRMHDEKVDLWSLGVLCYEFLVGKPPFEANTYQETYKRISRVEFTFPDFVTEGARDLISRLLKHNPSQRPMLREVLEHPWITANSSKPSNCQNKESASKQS
Put plainly: Activity against various protein tyrosine kinases: AurA. The procedure:
as §1

The target of assay [7] is Erk1 (Homo sapiens, UniProt P27361). Put plainly: Activity against various protein tyrosine kinases: Erk1. The procedure: as §1
For assay [8], the target named is Fer (Homo sapiens, UniProt P16591). Nature of the assay: Activity against various protein tyrosine kinases: Fer. How it is done:
as §1

Assay [9] addresses AKT2 (Homo sapiens, UniProt P31751). Put plainly: Activity against various protein tyrosine kinases: AKT2. How it is done: as §1
For assay [10], the target named is MAPKAPK2 (Homo sapiens, UniProt P49137). Nature of the assay: Activity against various protein tyrosine kinases: MAPKAPK2. The procedure: as §1
The target in assay [11] is T4, TSSK2 (Homo sapiens, UniProt Q96PF2).
T4 sequence (Q96PF2 1-358): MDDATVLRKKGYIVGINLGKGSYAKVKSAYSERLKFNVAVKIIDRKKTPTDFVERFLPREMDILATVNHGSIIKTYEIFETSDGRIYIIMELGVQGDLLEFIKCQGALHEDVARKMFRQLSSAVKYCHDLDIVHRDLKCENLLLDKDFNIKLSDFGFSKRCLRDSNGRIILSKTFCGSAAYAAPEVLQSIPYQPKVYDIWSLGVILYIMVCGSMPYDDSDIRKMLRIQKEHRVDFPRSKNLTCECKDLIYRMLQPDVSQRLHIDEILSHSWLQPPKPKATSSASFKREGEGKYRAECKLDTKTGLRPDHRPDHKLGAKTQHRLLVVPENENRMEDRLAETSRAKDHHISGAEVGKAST
Put plainly: Activity against various protein tyrosine kinases: TSSK2. The procedure:
as §1

Assay [12] has as its target p38-beta2 (Homo sapiens, UniProt Q15759). Put plainly: Activity against various protein tyrosine kinases: p38-beta2. How it is done: as §1

GSK3b, sequence (P49841 whole entry, species assumed): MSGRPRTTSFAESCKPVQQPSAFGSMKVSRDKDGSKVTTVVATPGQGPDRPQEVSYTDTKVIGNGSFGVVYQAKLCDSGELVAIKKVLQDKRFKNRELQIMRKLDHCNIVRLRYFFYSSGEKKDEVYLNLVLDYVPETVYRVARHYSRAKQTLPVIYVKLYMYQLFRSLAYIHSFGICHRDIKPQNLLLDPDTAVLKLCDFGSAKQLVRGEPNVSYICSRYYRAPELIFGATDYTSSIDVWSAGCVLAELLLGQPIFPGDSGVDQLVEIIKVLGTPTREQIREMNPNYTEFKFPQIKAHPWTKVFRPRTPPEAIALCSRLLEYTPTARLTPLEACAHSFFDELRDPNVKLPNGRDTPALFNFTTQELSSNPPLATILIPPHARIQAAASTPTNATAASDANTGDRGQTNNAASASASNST
AKT1, sequence (P31749 whole entry, species assumed): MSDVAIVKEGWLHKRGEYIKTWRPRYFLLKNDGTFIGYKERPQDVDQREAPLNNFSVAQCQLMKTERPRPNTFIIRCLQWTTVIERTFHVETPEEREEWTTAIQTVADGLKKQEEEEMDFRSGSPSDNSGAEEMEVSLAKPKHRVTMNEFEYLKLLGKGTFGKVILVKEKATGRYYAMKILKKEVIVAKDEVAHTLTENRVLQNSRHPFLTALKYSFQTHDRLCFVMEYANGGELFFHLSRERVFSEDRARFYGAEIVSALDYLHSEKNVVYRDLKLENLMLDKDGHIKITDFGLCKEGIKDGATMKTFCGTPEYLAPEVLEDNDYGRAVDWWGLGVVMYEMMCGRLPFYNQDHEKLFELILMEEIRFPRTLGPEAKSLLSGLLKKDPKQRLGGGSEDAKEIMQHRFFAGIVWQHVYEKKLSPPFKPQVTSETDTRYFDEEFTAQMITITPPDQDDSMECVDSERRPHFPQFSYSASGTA
Erk1, sequence (P27361 whole entry, species assumed): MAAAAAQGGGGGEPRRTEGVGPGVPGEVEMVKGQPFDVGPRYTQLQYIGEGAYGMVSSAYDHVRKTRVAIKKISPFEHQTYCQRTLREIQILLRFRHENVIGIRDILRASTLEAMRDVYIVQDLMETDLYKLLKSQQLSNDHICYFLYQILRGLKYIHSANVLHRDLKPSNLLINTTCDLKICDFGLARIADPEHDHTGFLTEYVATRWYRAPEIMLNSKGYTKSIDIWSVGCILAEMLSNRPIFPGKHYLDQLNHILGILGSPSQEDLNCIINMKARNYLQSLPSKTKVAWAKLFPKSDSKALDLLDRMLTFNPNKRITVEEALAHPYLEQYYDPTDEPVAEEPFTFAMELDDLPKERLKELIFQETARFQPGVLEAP
MAPKAPK2, sequence (P49137 whole entry, species assumed): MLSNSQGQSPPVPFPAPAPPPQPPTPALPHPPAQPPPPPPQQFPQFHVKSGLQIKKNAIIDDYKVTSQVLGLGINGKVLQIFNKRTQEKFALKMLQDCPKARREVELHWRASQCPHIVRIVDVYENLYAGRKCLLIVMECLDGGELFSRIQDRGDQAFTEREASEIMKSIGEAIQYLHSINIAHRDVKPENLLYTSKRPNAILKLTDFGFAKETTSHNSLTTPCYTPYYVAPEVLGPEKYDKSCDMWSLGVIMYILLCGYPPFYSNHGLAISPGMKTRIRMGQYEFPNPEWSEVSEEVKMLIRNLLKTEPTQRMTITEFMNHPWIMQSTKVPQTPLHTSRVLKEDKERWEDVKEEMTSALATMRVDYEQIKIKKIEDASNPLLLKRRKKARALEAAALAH
MSK1, sequence (O75582 whole entry, species assumed): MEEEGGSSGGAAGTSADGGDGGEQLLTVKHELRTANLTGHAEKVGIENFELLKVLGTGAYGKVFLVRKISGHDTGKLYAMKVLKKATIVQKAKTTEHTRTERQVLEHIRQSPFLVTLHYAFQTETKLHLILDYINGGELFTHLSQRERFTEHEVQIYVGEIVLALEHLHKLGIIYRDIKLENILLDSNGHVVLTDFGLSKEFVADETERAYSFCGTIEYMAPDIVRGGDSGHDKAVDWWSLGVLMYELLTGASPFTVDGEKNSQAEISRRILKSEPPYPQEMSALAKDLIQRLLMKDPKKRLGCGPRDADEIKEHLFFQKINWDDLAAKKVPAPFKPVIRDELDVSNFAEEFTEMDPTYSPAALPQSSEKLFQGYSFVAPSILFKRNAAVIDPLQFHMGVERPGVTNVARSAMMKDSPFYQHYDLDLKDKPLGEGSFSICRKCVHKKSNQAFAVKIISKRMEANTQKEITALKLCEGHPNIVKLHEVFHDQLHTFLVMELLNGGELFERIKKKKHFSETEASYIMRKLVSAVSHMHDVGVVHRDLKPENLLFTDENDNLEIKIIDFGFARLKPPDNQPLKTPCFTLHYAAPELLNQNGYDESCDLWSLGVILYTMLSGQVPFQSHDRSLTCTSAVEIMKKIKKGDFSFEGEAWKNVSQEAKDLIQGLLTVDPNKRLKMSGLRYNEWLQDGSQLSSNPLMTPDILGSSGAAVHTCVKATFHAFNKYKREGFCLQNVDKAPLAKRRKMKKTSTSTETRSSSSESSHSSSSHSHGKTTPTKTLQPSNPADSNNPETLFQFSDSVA
p38-beta2, sequence (Q15759 whole entry): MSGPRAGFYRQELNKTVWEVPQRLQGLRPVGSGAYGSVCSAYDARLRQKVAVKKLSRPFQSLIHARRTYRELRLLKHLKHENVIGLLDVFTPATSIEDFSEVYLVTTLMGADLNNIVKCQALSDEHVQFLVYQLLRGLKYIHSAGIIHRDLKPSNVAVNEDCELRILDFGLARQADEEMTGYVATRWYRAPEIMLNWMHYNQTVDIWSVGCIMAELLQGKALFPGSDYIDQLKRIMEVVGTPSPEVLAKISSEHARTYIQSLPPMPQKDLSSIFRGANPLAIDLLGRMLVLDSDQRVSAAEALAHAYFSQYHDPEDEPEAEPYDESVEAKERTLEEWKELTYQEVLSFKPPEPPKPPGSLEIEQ
AKT2, sequence (P31751 whole entry, species assumed): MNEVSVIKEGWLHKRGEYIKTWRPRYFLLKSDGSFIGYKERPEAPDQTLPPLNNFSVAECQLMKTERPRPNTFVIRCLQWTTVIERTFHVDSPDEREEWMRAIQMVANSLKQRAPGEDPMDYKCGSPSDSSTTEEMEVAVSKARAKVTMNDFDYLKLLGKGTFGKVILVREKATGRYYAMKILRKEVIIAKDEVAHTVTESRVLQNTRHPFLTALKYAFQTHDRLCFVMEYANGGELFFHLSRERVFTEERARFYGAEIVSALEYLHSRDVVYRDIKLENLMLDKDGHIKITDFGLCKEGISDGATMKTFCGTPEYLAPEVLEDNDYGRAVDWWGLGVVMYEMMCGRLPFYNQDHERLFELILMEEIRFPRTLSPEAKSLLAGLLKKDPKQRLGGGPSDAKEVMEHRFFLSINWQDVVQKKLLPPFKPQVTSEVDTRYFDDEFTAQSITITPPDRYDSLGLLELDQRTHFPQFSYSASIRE
Fer, sequence (P16591 whole entry, species assumed): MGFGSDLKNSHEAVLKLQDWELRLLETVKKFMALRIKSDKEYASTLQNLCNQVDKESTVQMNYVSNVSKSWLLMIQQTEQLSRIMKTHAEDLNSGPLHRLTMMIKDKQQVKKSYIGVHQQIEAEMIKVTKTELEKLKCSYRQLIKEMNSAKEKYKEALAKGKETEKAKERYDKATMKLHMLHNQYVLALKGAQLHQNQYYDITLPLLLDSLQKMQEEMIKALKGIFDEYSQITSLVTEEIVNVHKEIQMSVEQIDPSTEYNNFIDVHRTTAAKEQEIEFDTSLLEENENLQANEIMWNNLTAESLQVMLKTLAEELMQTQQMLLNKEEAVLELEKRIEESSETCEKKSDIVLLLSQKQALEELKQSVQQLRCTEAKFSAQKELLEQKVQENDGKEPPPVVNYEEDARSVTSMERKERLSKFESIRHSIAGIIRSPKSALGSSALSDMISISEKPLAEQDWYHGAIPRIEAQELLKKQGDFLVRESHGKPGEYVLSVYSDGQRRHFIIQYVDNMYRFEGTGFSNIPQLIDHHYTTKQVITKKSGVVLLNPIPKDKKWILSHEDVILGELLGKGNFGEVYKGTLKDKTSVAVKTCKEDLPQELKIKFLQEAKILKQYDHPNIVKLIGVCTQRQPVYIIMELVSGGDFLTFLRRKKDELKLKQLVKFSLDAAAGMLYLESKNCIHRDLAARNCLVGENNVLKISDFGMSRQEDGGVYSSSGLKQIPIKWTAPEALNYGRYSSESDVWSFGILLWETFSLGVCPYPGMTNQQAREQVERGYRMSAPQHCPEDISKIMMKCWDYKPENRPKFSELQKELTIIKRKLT

On to `COCCOCCOCCNC(=O)OCCN1CCN(c2cc(Nc3ncc(C(=O)Nc4c(C)cccc4Cl)s3)nc(C)n2)CC1` [mPEG3-NHCOO-Dasatinib], for which the inhibition at 0.01 µM was 0% in [1]; 4% in assay [2]; -12% in assay [3]; 2% in assay [4]; 7% in assay [5]; -7% in assay [6]. For the same compound, the inhibition at 0.01 µM in [7] was 3%; in assay [8] it was -4%; in assay [9], 9%; in [10], 1%; in assay [11] it was -1%; in [12] it was 3%. Besides, the inhibition at 1 µM in [1] is 1%; in assay [2] it was 1%; in assay [3], -13%; in assay [4] it was 1%; in [5], 0%; in [6], 19%. Moreover, the inhibition at 1 µM is 2% in assay [7]; 5% in [8]; 7% in assay [9]; -1% in [10]; 0% in assay [11]; 48% in assay [12].

Take `Cc1nc(Nc2ncc(C(=O)Nc3c(C)cccc3Cl)s2)cc(N2CCN(CCO)CC2)n1` [Dasatinib, reference compound]: the inhibition at 0.01 µM in assay [2] is 7%; in assay [3], 2%; in [5], -6%; in assay [6], -2%; in assay [8] it was -3%; in assay [11] it was -3%. In addition, the inhibition at 0.01 µM in [12] was -2%. Besides, the inhibition at 1 µM in assay [4] was 3%; in assay [5], -2%; in assay [9] it was -2%; in assay [12], 34%.

Turning to `COCCOCCOCCOCCOCCOCCOCCNC(=O)OCCN1CCN(c2cc(Nc3ncc(C(=O)Nc4c(C)cccc4Cl)s3)nc(C)n2)CC1` [mPEG7-NHCOO-Dasatinib], the inhibition at 0.01 µM in assay [1] was 2%; in assay [2], 3%; in [3] it was 5%; in [4] it was 3%; in [5], -1%; in assay [6], 3%. For the same compound, the inhibition at 0.01 µM was 3% in assay [7]; -2% in [8]; 3% in [9]; 3% in [10]; 3% in assay [11]; 0% in assay [12]. Further, the inhibition at 1 µM in [1] is 2%; in [2], 2%; in [3], -9%; in assay [4] it was 5%; in assay [5] it was 0%; in [6], 28%. Further, the inhibition at 1 µM in [7] is 4%; in assay [8], 5%; in assay [9] it was 3%; in assay [10], 7%; in assay [11], -2%; in assay [12], 35%.
